# Reference: patent US11851391B2, “Antifungal compounds and methods of forming the same” (University of Kentucky Research Foundation, priority 2018, dated 2023)
# Entries after “also recorded” stand apart in the source; their conditions may differ. Read-outs that look alike come from different tables or passages of the source.
# How the values were obtained:
# [1] = Solubility of the compounds; assay type: physicochemical
# [2] = tested on: Candida albicans ATCC 10231(R) (strain A); assay: MIC determination, in vitro antifungal assay (CLSI M27-A3); assay type: cell-based; details: MIC-0 (no visible growth), 48 h at 35° C.
# Summary of the method: (§1)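 The read-out is MIC-0, the minimum drug concentration yielding complete inhibition of yeast growth. Testing followed CLSI M27-A3 with minor changes, using cells at 2-4×10^3 CFU/mL in MOPS-buffered RPMI 1640 (pH 7.0) at 35° C, with DMSO under 1.25%.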
# [3] = tested on: Candida parapsilosis ATCC 22019 (strain J); assay: as above; assay type: cell-based; details: strain J, MIC-0, 48 h at 35° C.
# Summary of the method: as §1
# [4] = tested on: C. albicans ATCC 64124(R) (strain B); assay: as above; assay type: cell-based, Candida albicans; details: strain B, MIC-0, 48 h at 35° C.
# Summary of the method: as §1
# [5] = tested on: C. albicans ATCC 90819(R) (strain D); assay: as above; assay type: cell-based, Candida albicans; details: Candida albicans, ATCC90819, 48 h, MIC-0, 48 h at 35° C., read-out: MIC
# Summary of the method: as §1
# [6] = tested on: C. albicans ATCC MYA-1237(R) (strain F); assay: as above; assay type: cell-based, Candida albicans; details: Candida albicans, 48 h, MIC-0, 48 h at 35° C., read-out: MIC
# Summary of the method: as §1
# [7] = tested on: C. albicans ATCC MYA-2310(S) (strain E); assay: as above; assay type: cell-based, Candida albicans; details: Candida albicans, 48 h, MIC-0, 48 h at 35° C., read-out: MIC
# Summary of the method: as §1
# [8] = tested on: C. albicans ATCC MYA-1003(R) (strain G); assay: as above; assay type: cell-based, Candida albicans; details: MIC-0, 48 h at 35° C.
# Summary of the method: (§2)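 Broth microdilution per CLSI M27-A3 in RPMI 1640 buffered to pH 7.0 with 0.165 M MOPS, incubated at 35 °C. Overnight YPD-grown yeast adjusted to OD600 0.12, then diluted to 2-4×10^3 CFU/mL inoculum; final DMSO <1.25%.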
# [9] = tested on: C. albicans ATCC MYA-2876(S) (strain C); assay: as above; assay type: cell-based, Candida albicans; details: Candida albicans, 48 h, MIC-0, 48 h at 35° C., read-out: MIC
# Summary of the method: as §2
# [10] = tested on: Candida glabrata ATCC 2001 (strain H); assay: as above; assay type: cell-based; details: MIC-0, 48 h at 35° C.
# Summary of the method: as §2
# [11] = tested on: Candida krusei ATCC 6258 (strain I); assay: as above; assay type: cell-based; details: Pichia kudriavzevii, ATCC6258, 48 h, MIC-0, 48 h at 35° C., read-out: MIC
# Summary of the method: as §2
# [12] = tested on: Aspergillus flavus ATCC MYA-3631 (strain K); assay: MIC determination against filamentous fungi (CLSI M38-A2); assay type: cell-based; details: Aspergillus flavus, 48 h, MIC-0, 48 h at 35° C., read-out: MIC
# Summary of the method: (§3)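 Broth microdilution followed CLSI M38-A2 in RPMI 1640 buffered to pH 7.0 with 0.165 M MOPS. Spores were harvested from PDA cultures, counted by hemocytometer and added at 5×10^5 CFU/mL final, then incubated 48 h at 35° C. MIC was taken as complete growth inhibition versus growth control (MIC-0), run in triplicate.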
# [13] = tested on: Aspergillus nidulans ATCC 38163 (strain L); assay: as above; assay type: cell-based; details: Aspergillus nidulans, ATCC38163, 48 h, MIC-0, 48 h at 35° C., read-out: MIC
# Summary of the method: as §3
# [14] = tested on: Aspergillus terreus ATCC MYA-3633 (strain M); assay: as above; assay type: cell-based; details: Aspergillus terreus, 48 h, MIC-0, 48 h at 35° C., read-out: MIC
# Summary of the method: as §3
# [15] = tested on: various yeast strains and filamentous fungi (strains A-M); assay: Antifungal activity over the whole panel (summary of MIC data); assay type: cell-based, Candida and Aspergillus strains; details: for antifungal activity (in words): over the fungal strains tested, based on MIC data of Table 1
# Description: The activity of N,N′-diaryl-bishydrazones 7-22 was tested against a panel of seven strains of C. albicans: ATCC 10231(R) (A), ATCC 64124(R) (B), ATCC MYA-2876(S) (C), ATCC 90819(R) (D), ATCC MYA-2310(S) (E), ATCC MYA-1237(R) (F), and ATCC MYA-1003(R) (G). The activity of these bishydrazones 7-22 was also explored against a panel of three non-albicans Candida strains: C. glabrata ATCC 2001 (H), C. krusei ATCC 6258 (I), and C. parapsilosis ATCC 22019 (J). Finally, the activity of these bishydrazones 7-22 was explored against three Aspergillus strains: A. flavus ATCC MYA-3631 (K), A. nidulans ATCC 38163 (L), and A. terreus ATCC MYA-3633 (M).
# The MIC values of compounds 7a-24c against yeast cells (strains A-J) were determined in 96-well plates as described in the CLSI document M27-A3 with minor modifications. A single colony of freshly prepared yeast cells was used to inoculate 5 mL of yeast extract peptone dextrose (YPD) broth prior to incubation overnight with shaking at 200 rpm at 35° C. From the actively growing yeast culture, 100 μL were then transferred to 900 μL of sterile ddH2O and re-adjusted to achieve OD600 of 0.12 (˜1×10^6 CFU/mL). The cell suspension was further diluted to achieve 2-4×10^3 CFU/mL in RPMI 1640 medium. […] The final concentration of DMSO was ensured to be <1.25% in all experiments. The MIC values for compounds 7a-24c and CAS were defined as the minimum drug concentration that yielded complete inhibition (also known as MIC-0).
# Similarly, the MIC values of compounds 7a-24c, as well as that of the two control drugs against filamentous fungi (strains K-M) were determined as previously described in CLSI document M38-A2. Spores were harvested from sporulating cultures growing on potato dextrose agar (PDA) by filtration through sterile glass wool and enumerated by using a hemocytometer to obtain the desired inoculum size. […] Spore suspensions were added to the wells to afford a final concentration of 5×10^5 CFU/mL. The plates were incubated at 35° C. for 48 h. The MIC values of compounds 7a-24c and CAS against filamentous fungi were based on the complete inhibition of growth when compared to the growth control (MIC-0). […] Each test was performed in triplicate.
# [16] = tested on: various bacterial strains, including Listeria monocytogenes, methicillin-resistant Staphylococcus aureus, and vancomycin-resistant enterococci; assay: Antibacterial activity; assay type: cell-based
# Excerpt: The activity of N,N′-diaryl-bishydrazones 7-22 was explored against various bacterial strains, including Listeria monocytogenes, methicillin-resistant Staphylococcus aureus, and vancomycin-resistant enterococci.
# [17] = Candida albicans, ATCC10231, 48 h, read-out: MIC
# [18] = Lodderomyces parapsilosis, ATCC22019, 48 h, read-out: MIC
# [19] = Candida albicans, ATCC64124, 48 h, read-out: MIC
# [20] = Candida albicans, 48 h, read-out: MIC
# [21] = Nakaseomyces glabratus, ATCC2001, 48 h, read-out: MIC
compound,measurement,setting,value
O=[N+]([O-])c1ccccc1N/N=C/c1ccc(-c2cccc(/C=N/Nc3ccccc3[N+](=O)[O-])c2)cc1 [Compound 8a],solubility (in words),[1],limited solubility; also recorded: insoluble
COc1ccccc1N/N=C/c1ccc(-c2ccc(/C=N/Nc3ccccc3OC)cc2)cc1 [Compound 9b],solubility (in words),[1],limited solubility; also recorded: insoluble
COc1cccc(N/N=C/c2ccc(-c3cccc(/C=N/Nc4cccc(OC)c4)c3)cc2)c1 [Compound 11a],solubility (in words),[1],limited solubility; also recorded: insoluble
O=[N+]([O-])c1ccccc1N/N=C/c1ccc(-c2ccc(/C=N/Nc3ccccc3[N+](=O)[O-])cc2)cc1 [Compound 8b],solubility (in words),[1],limited solubility; also recorded: insoluble
FC(F)(F)c1ccc(N/N=C/c2ccc(-c3cccc(/C=N/Nc4ccc(C(F)(F)F)cc4)c3)cc2)cc1 [Compound 14a],solubility (in words),[1],limited solubility; also recorded: insoluble
Clc1ccc(N/N=C/c2ccc(-c3cccc(/C=N/Nc4ccc(Cl)cc4)c3)cc2)cc1 [Compound 18a],MIC,[2]; [17],7.8 µg/mL
same,MIC,[3]; [18],1.95 to 3.9 µg/mL
same,MIC,[3],3.9 µg/mL
same,MIC,[4]; [19],7.8 µg/mL
same,MIC,[5],15.6 µg/mL
same,MIC,[6],15.6 µg/mL
same,MIC,[7],31.3 µg/mL
same,MIC,[8]; [20],1.95 to 3.9 µg/mL
same,MIC,[8],3.9 µg/mL
same,MIC,[9],15.6 µg/mL
same,MIC,[10]; [21],15.6 µg/mL
same,MIC,[11],31.3 µg/mL
same,MIC,[12],> 31.3 µg/mL
same,MIC,[13],> 31.3 µg/mL
same,MIC,[14],> 31.3 µg/mL
same,antifungal activity (in words),[15],overall antifungal activity against all the strains tested; also recorded: good activity against the majority of the fungal strains tested; also recorded: excellent activity only against yeast strains
CC(C)Oc1ccc(N/N=C/c2ccc(-c3ccc(/C=N/Nc4ccc(OC(C)C)cc4)cc3)cc2)cc1 [Compound 16b],MIC,[2]; [17],> 31.3 µg/mL
same,MIC,[3]; [18],> 31.3 µg/mL
same,MIC,[4]; [19],> 31.3 µg/mL
same,MIC,[5],> 31.3 µg/mL
same,MIC,[6],> 31.3 µg/mL
same,MIC,[7],> 31.3 µg/mL
same,MIC,[8]; [20],> 31.3 µg/mL
same,MIC,[9],> 31.3 µg/mL
same,MIC,[10]; [21],> 31.3 µg/mL
same,MIC,[11],> 31.3 µg/mL
same,MIC,[12],> 31.3 µg/mL
same,MIC,[13],> 31.3 µg/mL
same,MIC,[14],> 31.3 µg/mL
same,antifungal activity (in words),[15],inactive
CC(C)(C)N/N=C/c1ccc(-c2ccc(/C=N/NC(C)(C)C)cc2)cc1 [Compound 23b],MIC,[2]; [17],31.3 µg/mL
same,MIC,[3]; [18],> 31.3 µg/mL
same,MIC,[4]; [19],31.3 µg/mL
same,MIC,[5],> 31.3 µg/mL
same,MIC,[6],31.3 µg/mL
same,MIC,[7],31.3 µg/mL
same,MIC,[8]; [20],> 31.3 µg/mL
same,MIC,[9],> 31.3 µg/mL
same,MIC,[10],15.6 µg/mL
same,MIC,[10]; [21],15.6 µg/mL
same,MIC,[11],31.3 µg/mL
same,MIC,[12],> 31.3 µg/mL
same,MIC,[13],31.3 µg/mL
same,MIC,[14],> 31.3 µg/mL
same,MIC,"[15]; against all fungal strains tested, with named exceptions, read-out: antifungal activity class based on MIC values",≥ 31.3 µg/mL
same,antifungal activity (in words),[15],inactive
same,antibacterial activity (in words),[16],"neither the N,N′-diaryl-bishydrazones 7-22 nor the N,N′-di-tert-butyl-bishydrazone 23b displayed antibacterial activity; also recorded: Neither the N,N′-diaryl-bishydrazones 7-22 or the N,N′-dialkyl-bishydrazone 23b displayed antibacterial activity"
COc1cccc(N/N=C/c2ccc(-c3ccc(/C=N/Nc4cccc(OC)c4)cc3)cc2)c1 [Compound 11b],solubility (in words),[1],limited solubility; also recorded: insoluble
Fc1cc(F)cc(N/N=C/c2ccc(-c3cccc(/C=N/Nc4cc(F)cc(F)c4)c3)cc2)c1 [Compound 22a],MIC,[2]; [17],3.9 µg/mL
same,MIC,[2],3.9 µg/mL
same,MIC,[3]; [18],> 31.3 µg/mL
same,MIC,[4]; [19],15.6 µg/mL
same,MIC,[4],15.6 µg/mL
same,MIC,[5],> 31.3 µg/mL
same,MIC,[6],31.3 µg/mL
same,MIC,[7],> 31.3 µg/mL
same,MIC,[8]; [20],31.3 µg/mL
same,MIC,[9],31.3 µg/mL
same,MIC,[10]; [21],> 31.3 µg/mL
same,MIC,[11],> 31.3 µg/mL
same,MIC,[12],> 31.3 µg/mL
same,MIC,[13],> 31.3 µg/mL
same,MIC,[14],> 31.3 µg/mL
same,antifungal activity (in words),[15],no activity
COc1ccccc1N/N=C/c1ccc(-c2cccc(/C=N/Nc3ccccc3OC)c2)cc1 [Compound 9a],solubility (in words),[1],limited solubility; also recorded: insoluble
N#Cc1ccc(N/N=C/c2ccc(-c3ccc(/C=N/Nc4ccc(C#N)cc4)cc3)cc2)cc1 [Compound 13b],MIC,[2]; [17],> 31.3 µg/mL
same,MIC,[3]; [18],> 31.3 µg/mL
same,MIC,[4]; [19],> 31.3 µg/mL
same,MIC,[5],> 31.3 µg/mL
same,MIC,[6],> 31.3 µg/mL
same,MIC,[7],> 31.3 µg/mL
same,MIC,[8]; [20],31.3 µg/mL
same,MIC,[9],> 31.3 µg/mL
same,MIC,[10]; [21],> 31.3 µg/mL
same,MIC,[11],> 31.3 µg/mL
same,MIC,[12],> 31.3 µg/mL
same,MIC,[13],> 31.3 µg/mL
same,MIC,[14],31.3 µg/mL
same,antifungal activity (in words),[15],inactive
